Assay: Human HepG2 cell viability assay in 384 well format
Type: toxicity, cell-based
Set-up: dose 125 nL, time 70.5 hour; concentration not given beside the values
Details: HepG2 cells, read-out: Inhibition

Row | SMILES | cytotoxicity at 70.5 h [%]
1 | O=C(CCc1cccs1)NCC1CCCN1c1cccnn1 (stereo not drawn) | 3.16
2 | CCC(CC)c1cc(CNC(=O)N2CCCC(c3ncc[nH]3)C2)on1 (stereo not drawn) | 0.2
3 | Cn1c(CN2CCCCCC2)cc(=O)c(O)c1CN1CCCC1 | 51.6
4 | Fc1ccc(-c2noc([C@@H]3Cc4nc[nH]c4CN3)n2)cc1 | -11.7
5 | NC(=O)c1cc(C2CCCN(CCc3ccccn3)C2)n[nH]1 (stereo not drawn) | -10.6
6 | COc1cc(C(=O)Nc2nc(C)no2)cc(Cl)c1OC | -3.51
7 | Cc1cccc(N(C)Cc2cc(=O)n3oc(C)cc3n2)c1 | 3.47
8 | c1ccc(Oc2nccc3occc23)c(CN2CCCCC2)c1 | 6.4
9 | c1csc(CN2CCCn3cnc(CN4CCCC4)c3C2)c1 | -2.7
10 | COCCN(C/C=C/c1ccccc1)Cc1ncc[nH]1 | -5.41
11 | Cc1ccc(CNC(=O)N(Cc2ccccc2F)C2CC2)cn1 | -1.38
12 | CCCNC(=O)C1CCN(Cc2csc(C(C)(C)C)n2)CC1 | -9.45
13 | Cn1cnc(-c2nc(C(=O)NCC3CCCO3)c3ccccn23)c1 (stereo not drawn) | -0.333
14 | CCOC(=O)[C@@H]1CN2CCNC[C@@H]2[C@H]1c1ccccc1 | -7.39
15 | N#Cc1cccc(CN2Cc3nccn3CC(COCC3CC3)C2)c1 (stereo not drawn) | 8.65
16 | c1cnc(N2CC[C@@H]3O[C@@H](COCc4cccnc4)CC[C@@H]32)nc1 | -0.916
17 | CCc1nc(N2CCCC(CO)(CCOC)C2)ncc1C (stereo not drawn) | -7.73
18 | COc1ccc(CCNC2CCCN(c3ccc(C)nn3)C2)cc1 (stereo not drawn) | -7.85
19 | CCSCCn1cc(-c2ncc[nH]2)nn1 | -17.4
20 | CCN1CC(C(=O)NC(C)(C)CC)CC1=O (stereo not drawn) | -3.27
21 | O=C(c1cc(-c2ccco2)nc2c(Cl)cccc12)N1CCS(=O)(=O)CC1 | -11.9

Row | SMILES | cytotoxicity at 70.5 h [%]
22 | CCN1CCC(NC(=O)CN2CCCC2Cn2cccn2)CC1 (stereo not drawn) | 32.9
23 | O[C@@]1(c2ccccn2)CC[C@H]2CN(Cc3ccccn3)C[C@H]21 | -0.173
24 | COc1cc(C)sc1C(=O)NCCC(=O)N(C)Cc1ccccc1 | -3.28
25 | COc1ncc(NC(=O)c2ccco2)c(OC)n1 | 7.73
26 | CCN(CC)C1CCN(c2nccc(C3CCCC3)n2)C1 (stereo not drawn) | -13.5
27 | Cc1cc(C)n(C2CN(CC(O)c3ccc(C(F)(F)F)cc3)C2)n1 (stereo not drawn) | -4.01
28 | CN(C)CCN1C(=O)CC[C@@H]2[C@H]1CCN2Cc1cccc(C#N)c1 | -8.56
29 | CSCc1noc(C2CCC(=O)N(CCCN3CCCC3=O)C2)n1 (stereo not drawn) | -4.64
30 | CNC(=O)C1(CCCc2cnccn2)CCN1Cc1ccc(C)cc1 (stereo not drawn) | -5.64
31 | Cn1ccnc1CN1CCOC(C)(C(=O)N2CCOCC2)C1 (stereo not drawn) | 1.29
32 | CCC(NC(=O)c1cc(OC)c2c(c1)OCCO2)c1cccs1 (stereo not drawn) | -8.09
33 | Cc1ncsc1CNc1cc(N2CCCC2CO)ncn1 (stereo not drawn) | 26.9
34 | Cc1cc(NCC(=O)N(C)C)c(C(N)=O)cc1F | -0.553
35 | COCCn1ccnc1C1CCN(C(=O)CSc2nnc(C)o2)CC1 | 9.15
36 | Cc1ccc(C(=O)N2CCCC(Cn3cc(C(C)(C)N)nn3)C2)s1 (stereo not drawn) | -4.81
37 | CCCc1noc(C(C)N(CC)Cc2ccco2)n1 (stereo not drawn) | 7.58
38 | Cc1cc(NC(=O)CN(c2ccccc2)C(C)C)on1 | 0.413
39 | Cc1ccc(CNCC2CNc3cc(C)nn3C2)cn1 (stereo not drawn) | 15.9
40 | Cn1cc(N2CC3(CCN(CC4CCOCC4)CC3)OCC2=O)cn1 | -17.2
41 | COc1ccc(NC(=O)CSc2nc(C)c(C)c(C)c2C#N)cn1 | -2.39
42 | CCc1nc(CN2CCCN(C(=O)C3CCC3)CC2)cs1 | 5.44

Row | SMILES | cytotoxicity at 70.5 h [%]
43 | CCn1nc2c(cc1=O)CN(Cc1nc(-c3cccnc3)no1)CC2 | -14.4
44 | O=C(Nc1ccccn1)C1CC(=O)N(Cc2ccccn2)C1 (stereo not drawn) | 16.8
45 | CN1CC2(CCN(C(=O)c3cc(-n4cccn4)ccc3Cl)CC2)OC1=O | 7.23
46 | Fc1cccc(C2CCCN2Cc2nnnn2C2CC2)c1 (stereo not drawn) | -8.46
47 | Cc1ccc(C2CCCCCN2Cc2cn(C)nc2C)cc1 (stereo not drawn) | -12.1
48 | CC(C)NC(=O)NCc1cc(-c2cccc(Cl)c2)nn1C | 7.95
49 | C=C(C)CN1CCC(NC(=O)NCCc2ccc(N(C)C)cc2)CC1 | 12.7
50 | Cc1cccc(N2CC[C@@H]3CN(Cc4csc(C)n4)CCO[C@@H]3C2)n1 | 2.82
51 | CC(=O)c1cccc(OC(C)C(=O)Nc2cnn(CCN(C)C)c2)c1 (stereo not drawn) | -12.3
52 | Fc1cnc(N2CCC3(CC2)CC(OCc2cccnc2)CO3)nc1 (stereo not drawn) | -0.216
53 | CCN(Cc1ccc2c(c1)OCO2)C(=O)Cn1cccnc1=O | -0.305
54 | O=S(=O)(NCC1OCCc2cn(Cc3ccccn3)nc21)C1CC1 (stereo not drawn) | -0.93
55 | COc1c(CNC2CCN(C(=O)C3CC3)CC2)c(C(C)C)nn1C | 0.393
56 | O=c1[nH]c(NCCCO)nc2c1C1(CCCC1)Cc1ccccc1-2 | -23.5
57 | O=C1CC2(CNCCN(C(=O)Nc3ccccc3)C2)CN1 (stereo not drawn) | -9.89
58 | CSCC(CCO)NC(=O)Nc1cccc(Br)c1C (stereo not drawn) | -21.2
59 | CN(C)c1ncccc1CNCc1cccc(O)c1 | -12.2
60 | CN(Cc1ccc([S+](C)[O-])cc1)c1cncc(Br)c1 (stereo not drawn) | -23.7
61 | COc1nn(C)cc1C(=O)NCC(OC)c1ccccc1C (stereo not drawn) | -3.02
62 | Fc1cc(CN2CCOC3(CCOCC3)C2)ccc1Cl | -1.5
63 | COCC1(NC(=O)C(c2ccc(F)cc2)N(C)C)CCCC1 (stereo not drawn) | 7.27

Row | SMILES | cytotoxicity at 70.5 h [%]
64 | CC(C)[C@]1(O)CN(C(=O)C2(Cn3cccn3)CC2)C[C@H]1C | -7.77
65 | CC(C)Oc1ccc(CNC(=O)NCC(C)(C)C(N)=O)cc1F | -5.2
66 | O=C(NCc1ccccc1F)C1=NOC2(CCNC2)C1 (stereo not drawn) | -10.8
67 | CC(C)c1noc(CN2CCN(CCO)CC2)n1 | 2.45
68 | O=C(CCNC(=O)c1cnccn1)Nc1ncc[nH]1 | -31.8
69 | CN(Cc1ccc(F)cc1)[C@@H]1CN(S(=O)(=O)N(C)C)C[C@H]1O | -0.678
70 | O=C(Cc1ccc(O)c(Cl)c1)N1CCCCC1CCn1cccn1 (stereo not drawn) | -4.41
71 | Cc1ncc2c(n1)CCN(Cc1nc(Cc3ccccc3)no1)C2 | 1.16
72 | Cc1nccc(NCc2cc3n(n2)CCCN(C(=O)C2CCC2)C3)n1 | 13.7
73 | COCCC(=O)N1CC2(CCN(Cc3ccoc3)C2)C1 | 33.7
74 | COc1cc(-c2ccc(F)c3c2OC(CN)C3)cc(OC)c1OC (stereo not drawn) | 6.54
75 | CCC1=N[C@@]2(CC[C@@H]3CN(CC4CC4)C[C@@H]32)C(=O)N1 | 7.37
76 | Cc1ccsc1CN1CCC2(CC1)CC(OCc1cccnc1)CO2 (stereo not drawn) | -0.0736
77 | CCN1CCNC(=O)C12CCN(S(=O)(=O)c1ccc(F)cc1)CC2 | 0.587
78 | O=C(c1cccc2c1OCO2)N1CCC(N2CCCC2)CC1 | -1.7
79 | O=C(NC1CC1)[C@H]1[C@@H]2CN(Cc3ccc(-c4ccn[nH]4)s3)C[C@@H]21 | 0.292
80 | O=S1(=O)NCC2(CCCN(Cc3ccccn3)C2)Oc2ncccc21 (stereo not drawn) | 30.8
81 | Cn1cnc2c(N3CCCC3)nc(C3CCNCC3)cc21 | -17
82 | Cn1cc(C(=O)NCc2ccc(N3CCCC3)nc2)ccc1=O | -8.81
83 | CCN(Cc1cnn(C)c1)C(=O)c1ccc(C)c(N2CCNC2=O)c1 | -17.2

Source: ChEMBL document CHEMBL3507680, “University of Dundee, Gates Library screen for HepG2 cell viability”
